# The supplement of paper PMC10307832
# Assays:
# Assay in all cases: relative viability (nuclei count vs DMSO), 5 days (fraction); higher = more cells survive
# [1] = test system: LCLC-97TM1
# Outline: (§1)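 Nuclei were stained with Hoechst during a one-step fixation (final 0.05% Triton X-100, 1% formaldehyde, 1 ug/ml Hoechst) carried out 5 days after dosing, then counted on 4× images. The cells, lung cancer lines in 1536-well plates, had been dosed by pin tool the day after seeding with one drug alone or a fixed anchor-drug dose plus five library-drug doses (not always all listed) in √10 steps. Relative viability is the nuclei count in treated wells divided by that in vehicle wells, and each value is the median of duplicate plates.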
# [2] = test system: NCI-H460
# Outline: as §1
# [3] = test system: NCI-H520
# Outline: as §1
# [4] = test system: PC-3 [JPC-3]
# Outline: as §1
# [5] = test system: NCI-H322M
# Outline: as §1
# [6] = test system: NCI-H838
# Outline: as §1
# [7] = test system: NCI-H1915
# Outline: as §1
# [8] = test system: NCI-H1792
# Outline: as §1
# [9] = test system: EKVX
# Outline: as §1
# [10] = test system: NCI-H1437
# Outline: as §1
# [11] = test system: NCI-H1666
# Outline: as §1
# [12] = test system: SK-LU-1
# Outline: as §1
# [13] = test system: NCI-H1975
# Outline: as §1
# [14] = test system: NCI-H1650
# Outline: as §1
# [15] = test system: NCI-H647
# Outline: as §1
# [16] = test system: NCI-H727
# Outline: as §1
# [17] = test system: NCI-H441
# Outline: as §1
# [18] = test system: NCI-H23
# Outline: as §1
# [19] = test system: NCI-H596
# Outline: as §1
smiles,measurement,setting,value
Cc1csc(=NC2CCCCC2)n1/N=C/c1ccc(O)c(O)c1O [MIM1] + CC1(C)CCC(c2ccc(Cl)cc2)=C(CN2CCN(c3ccc(C(=O)NS(=O)(=O)c4ccc(N[C@H](CCN5CCOCC5)CSc5ccccc5)c(S(=O)(=O)C(F)(F)F)c4)cc3)CC2)C1 [Navitoclax] (partner 0.5 µM),relative viability,[1]; first compound 0.2 µM,0.567
same,relative viability,[1]; first compound 0.6325 µM,0.398
same,relative viability,[1]; first compound 2 µM,0.397
same,relative viability,[1]; first compound 6.325 µM,0.48
same,relative viability,[1]; first compound 20 µM,0.203
same,relative viability,[2]; first compound 0.2 µM,1.16
same,relative viability,[2]; first compound 0.6325 µM,1.14
same,relative viability,[2]; first compound 2 µM,0.772
same,relative viability,[2]; first compound 6.325 µM,0.416
same,relative viability,[2]; first compound 20 µM,0.0332
same,relative viability,[3]; first compound 0.2 µM,1.08
same,relative viability,[3]; first compound 0.6325 µM,1.06
same,relative viability,[3]; first compound 2 µM,1.06
same,relative viability,[3]; first compound 6.325 µM,0.832
same,relative viability,[3]; first compound 20 µM,0.517
same,relative viability,[4]; first compound 0.2 µM,0.821
same,relative viability,[4]; first compound 0.6325 µM,0.682
same,relative viability,[4]; first compound 2 µM,0.897
same,relative viability,[4]; first compound 6.325 µM,0.696
same,relative viability,[4]; first compound 20 µM,0.531
same,relative viability,[5]; first compound 0.2 µM,1.13
same,relative viability,[5]; first compound 0.6325 µM,1.29
same,relative viability,[5]; first compound 2 µM,1.31
same,relative viability,[5]; first compound 6.325 µM,1.13
same,relative viability,[5]; first compound 20 µM,1.37
same,relative viability,[6]; first compound 0.2 µM,1.12
same,relative viability,[6]; first compound 0.6325 µM,1.3
same,relative viability,[6]; first compound 2 µM,0.994
same,relative viability,[6]; first compound 6.325 µM,0.902
same,relative viability,[6]; first compound 20 µM,0.501
same,relative viability,[7]; first compound 0.2 µM,0.791
same,relative viability,[7]; first compound 0.6325 µM,0.696
same,relative viability,[7]; first compound 2 µM,0.781
same,relative viability,[7]; first compound 6.325 µM,0.62
same,relative viability,[7]; first compound 20 µM,0.656
same,relative viability,[8]; first compound 0.2 µM,0.59
same,relative viability,[8]; first compound 0.6325 µM,0.484
same,relative viability,[8]; first compound 2 µM,0.559
same,relative viability,[8]; first compound 6.325 µM,0.501
same,relative viability,[8]; first compound 20 µM,0.245
same,relative viability,[9]; first compound 0.2 µM,0.922
same,relative viability,[9]; first compound 0.6325 µM,1.07
same,relative viability,[9]; first compound 2 µM,0.965
same,relative viability,[9]; first compound 6.325 µM,0.761
same,relative viability,[9]; first compound 20 µM,0.293
same,relative viability,[10]; first compound 0.2 µM,0.989
same,relative viability,[10]; first compound 0.6325 µM,1.1
same,relative viability,[10]; first compound 2 µM,0.998
same,relative viability,[10]; first compound 6.325 µM,0.654
same,relative viability,[10]; first compound 20 µM,0.27
same,relative viability,[11]; first compound 0.2 µM,1
same,relative viability,[11]; first compound 0.6325 µM,1.15
same,relative viability,[11]; first compound 2 µM,1.11
same,relative viability,[11]; first compound 6.325 µM,0.727
same,relative viability,[11]; first compound 20 µM,0.667
same,relative viability,[12]; first compound 0.2 µM,0.708
same,relative viability,[12]; first compound 0.6325 µM,0.78
same,relative viability,[12]; first compound 2 µM,0.957
same,relative viability,[12]; first compound 6.325 µM,0.824
same,relative viability,[12]; first compound 20 µM,0.841
same,relative viability,[13]; first compound 0.2 µM,1.16
same,relative viability,[13]; first compound 0.6325 µM,1.23
same,relative viability,[13]; first compound 2 µM,1.04
same,relative viability,[13]; first compound 6.325 µM,0.732
same,relative viability,[13]; first compound 20 µM,0.761
same,relative viability,[14]; first compound 0.2 µM,1.13
same,relative viability,[14]; first compound 0.6325 µM,1.18
same,relative viability,[14]; first compound 2 µM,0.693
same,relative viability,[14]; first compound 6.325 µM,0.452
same,relative viability,[14]; first compound 20 µM,0.202
same,relative viability,[15]; first compound 0.2 µM,1.2
same,relative viability,[15]; first compound 0.6325 µM,0.989
same,relative viability,[15]; first compound 2 µM,0.742
same,relative viability,[15]; first compound 6.325 µM,0.809
same,relative viability,[15]; first compound 20 µM,0.617
same,relative viability,[16]; first compound 0.2 µM,0.441
same,relative viability,[16]; first compound 0.6325 µM,0.493
same,relative viability,[16]; first compound 2 µM,0.324
same,relative viability,[16]; first compound 6.325 µM,0.346
same,relative viability,[16]; first compound 20 µM,0.27
same,relative viability,[17]; first compound 0.2 µM,0.58
same,relative viability,[17]; first compound 0.6325 µM,0.912
same,relative viability,[17]; first compound 2 µM,0.706
same,relative viability,[17]; first compound 6.325 µM,0.577
same,relative viability,[17]; first compound 20 µM,0.24
same,relative viability,[18]; first compound 0.2 µM,0.631
same,relative viability,[18]; first compound 2 µM,0.632
same,relative viability,[18]; first compound 6.325 µM,0.934
same,relative viability,[18]; first compound 20 µM,0.242
same,relative viability,[19]; first compound 0.2 µM,0.935
same,relative viability,[19]; first compound 0.6325 µM,0.921
same,relative viability,[19]; first compound 2 µM,0.895
same,relative viability,[19]; first compound 6.325 µM,0.806
same,relative viability,[19]; first compound 20 µM,0.7
